In ChEMBL document CHEMBL3885861, “Open TG-GATES”:

Species: Rattus norvegicus
Experiment: Open TG-GATES - Regimen: Daily Repeat
Format: toxicity, organism-based, Sprague-Dawley
Set-up: regimen Daily Repeat, gender Male, age 6 weeks
Settings: in vivo, po, route gavage; for TP / gamma-GTP / A/G / ALP / ALT / AST / BUN / CRE / Ca / Cl / GLC / IP / K / LDH / Na / PL / RALB / TC / TG: tissue Plasma; for APTT / Bas / Eos / Fbg / Hb / Ht / Lym / MCH / MCHC / MCV / Mono / Neu / PT / Plat / RBC / Ret / WBC: tissue Blood; for KIDNEY_L / KIDNEY_R / KIDNEY_TOTAL: tissue Kidney; for LIVER: tissue Liver
[1] = 300 mg/kg, […], dose level Middle, time 28 day
[2] = 1000 mg/kg, 72 h, dose level High, time 3 day
[3] = 1000 mg/kg, […], dose level High, time 7 day
[4] = 1000 mg/kg, […], dose level High, time 14 day
[5] = 1000 mg/kg, […], dose level High, time 28 day

`O=C(O)c1ccccc1Nc1ccccc1` [FENAMIC ACID] gave a TP [1] of 6.4 g/dL, a gamma-GTP [1] of 1 IU/L and a TERMINAL_BW [2] of 219.3 g. For the same compound, the APTT [2] was 17 s, the Bas [2] was 0.3% and the Eos [2] was 0.7%. It also gave a Fbg [2] of 440 mg/dL, a Hb [2] of 13.3 g/dL and a Ht [2] of 39.3%. The Lym [2] was 50.3%, the MCH [2] was 20.5 pg and the MCHC [2] was 33.8%. The MCV [2] was 60.5 fL, the Mono [2] was 3.3% and the Neu [2] was 44.3%. The PT [2] was 14 s, the Plat [2] was 127 x10_4/uL and the RBC [2] was 650 x10_4/ul. It also gave a Ret [2] of 5.7%, a WBC [2] of 132.2 x10_2/uL and a KIDNEY_L [2] of 1.1 g. It also gave a KIDNEY_R [2] of 1.1 g, a KIDNEY_TOTAL [2] of 2.1 g and an LIVER [2] of 10.8 g. The A/G [2] was 0.9, the ALP [2] was 1423.7 IU/L and the ALT [2] was 37.7 IU/L. For the same compound, the AST [2] was 58.3 IU/L, the BUN [2] was 17 mg/dL and the CRE [2] was 0.2 mg/dL. For the same compound, the Ca [2] was 11.4 mg/dL, the Cl [2] was 109 meq/L and the GLC [2] was 165.7 mg/dL. For the same compound, the IP [2] was 6.6 mg/dL, the K [2] was 4.4 meq/L and the LDH [2] was 100.3 IU/L. For the same compound, the Na [2] was 143.3 meq/L, the PL [2] was 148.7 mg/dL and the RALB [2] was 2.5 g/dL. It also gave a TC [2] of 67 mg/dL, a TG [2] of 89.3 mg/dL and a TP [2] of 5.3 g/dL. For the same compound, the gamma-GTP [2] was 1.3 IU/L, the TERMINAL_BW [3] was 253.6 g and the TERMINAL_BW [4] was 281.5 g. The TERMINAL_BW [5] was 383.3 g, the APTT [3] was 16.6 s and the Bas [3] was 1%. The Eos [3] was 0.7%, the Fbg [3] was 290.7 mg/dL and the Hb [3] was 12.6 g/dL. The Ht [3] was 37%, the Lym [3] was 72.3% and the MCH [3] was 20.5 pg. It also gave an MCHC [3] of 34%, an MCV [3] of 60.2 fL and a Mono [3] of 3%. For the same compound, the Neu [3] was 23.3%, the PT [3] was 14.1 s and the Plat [3] was 156 x10_4/uL. It also gave an RBC [3] of 616 x10_4/ul, a Ret [3] of 7.7% and a WBC [3] of 161.4 x10_2/uL. It also gave an APTT [4] of 32.8 s, a Bas [4] of 0.7% and an Eos [4] of 0.3%. It also gave a Fbg [4] of 473.3 mg/dL, a Hb [4] of 14 g/dL and a Ht [4] of 41.7%. It also gave a Lym [4] of 53.3%, an MCH [4] of 21.1 pg and an MCHC [4] of 33.5%. It also gave an MCV [4] of 63.2 fL, a Mono [4] of 3.7% and a Neu [4] of 41.7%. For the same compound, the PT [4] was 13.2 s, the Plat [4] was 171.8 x10_4/uL and the RBC [4] was 674 x10_4/ul. For the same compound, the Ret [4] was 13.6%, the WBC [4] was 149.3 x10_2/uL and the APTT [5] was 17.1 s. The Bas [5] was 0%, the Eos [5] was 0.5% and the Fbg [5] was 334.5 mg/dL. For the same compound, the Hb [5] was 12.2 g/dL, the Ht [5] was 36% and the Lym [5] was 69%. The MCH [5] was 19.6 pg, the MCHC [5] was 34% and the MCV [5] was 57.6 fL. For the same compound, the Mono [5] was 2.5%, the Neu [5] was 27.5% and the PT [5] was 13.9 s. For the same compound, the Plat [5] was 139.6 x10_4/uL, the RBC [5] was 626 x10_4/ul and the Ret [5] was 7.5%. The WBC [5] was 154.4 x10_2/uL, the KIDNEY_L [3] was 1.1 g and the KIDNEY_R [3] was 1.1 g. It also gave a KIDNEY_TOTAL [3] of 2.3 g, a KIDNEY_L [4] of 2.1 g and a KIDNEY_R [4] of 1.8 g. It also gave a KIDNEY_TOTAL [4] of 4 g, a KIDNEY_L [5] of 1.7 g and a KIDNEY_R [5] of 1.6 g. The KIDNEY_TOTAL [5] was 3.3 g, the LIVER [3] was 12.5 g and the LIVER [4] was 13.5 g. The LIVER [5] was 18.7 g, the A/G [3] was 0.9 and the ALP [3] was 1573.3 IU/L. For the same compound, the ALT [3] was 38 IU/L, the AST [3] was 62.7 IU/L and the BUN [3] was 20 mg/dL. The CRE [3] was 0.3 mg/dL, the Ca [3] was 11.5 mg/dL and the Cl [3] was 107 meq/L. For the same compound, the GLC [3] was 177.3 mg/dL, the IP [3] was 6.3 mg/dL and the K [3] was 4.3 meq/L. It also gave an LDH [3] of 117 IU/L, a Na [3] of 144 meq/L and a PL [3] of 155.7 mg/dL. For the same compound, the RALB [3] was 2.6 g/dL, the TC [3] was 87.7 mg/dL and the TG [3] was 75.3 mg/dL. It also gave a TP [3] of 5.6 g/dL, a gamma-GTP [3] of 1 IU/L and an A/G [4] of 0.9. It also gave an ALP [4] of 1270.3 IU/L, an ALT [4] of 38.3 IU/L and an AST [4] of 57.3 IU/L. It also gave a BUN [4] of 118.3 mg/dL, a CRE [4] of 0.5 mg/dL and a Ca [4] of 11.8 mg/dL. For the same compound, the Cl [4] was 105.7 meq/L, the GLC [4] was 156.7 mg/dL and the IP [4] was 11 mg/dL. The K [4] was 5.2 meq/L, the LDH [4] was 210 IU/L and the Na [4] was 145.3 meq/L. For the same compound, the PL [4] was 140.7 mg/dL, the RALB [4] was 2.9 g/dL and the TC [4] was 65 mg/dL. The TG [4] was 94.7 mg/dL, the TP [4] was 6.3 g/dL and the gamma-GTP [4] was 2 IU/L. The A/G [5] was 0.9, the ALP [5] was 1013.5 IU/L and the ALT [5] was 36.5 IU/L. It also gave an AST [5] of 61.5 IU/L, a BUN [5] of 20 mg/dL and a CRE [5] of 0.3 mg/dL. For the same compound, the Ca [5] was 10.8 mg/dL, the Cl [5] was 105 meq/L and the GLC [5] was 182.5 mg/dL. The IP [5] was 5.5 mg/dL, the K [5] was 4.2 meq/L and the LDH [5] was 155.5 IU/L. For the same compound, the Na [5] was 144.5 meq/L, the PL [5] was 166 mg/dL and the RALB [5] was 2.5 g/dL. It also gave a TC [5] of 80 mg/dL, a TG [5] of 92 mg/dL and a TP [5] of 5.5 g/dL. For the same compound, the gamma-GTP [5] was 1 IU/L.
